Laboratory results as given in patent publication US20240343704A1, “HALO-SUBSTITUTED AMINO PYRIDINE COMPOUNDS AS INHIBITORS OF THE HAEMATOPOIETIC PROGENITOR KINASE 1 (HPK1)” (priority 2021, published 2024).

Assays:
[1] = target: T1, Recombinant (1-346) HPK1 (h) (Homo sapiens, UniProt Q92918); assay: HPK1 Human STE Kinase Enzymatic Radiometric Assay; format: biochemical; conditions: read-out: HPK1 IC50 nM Range*
T1 construct: Recombinant (1-346) HPK1 (h) is incubated with 8 mM MOPS pH 7.0
T1 sequence (Q92918 1-346): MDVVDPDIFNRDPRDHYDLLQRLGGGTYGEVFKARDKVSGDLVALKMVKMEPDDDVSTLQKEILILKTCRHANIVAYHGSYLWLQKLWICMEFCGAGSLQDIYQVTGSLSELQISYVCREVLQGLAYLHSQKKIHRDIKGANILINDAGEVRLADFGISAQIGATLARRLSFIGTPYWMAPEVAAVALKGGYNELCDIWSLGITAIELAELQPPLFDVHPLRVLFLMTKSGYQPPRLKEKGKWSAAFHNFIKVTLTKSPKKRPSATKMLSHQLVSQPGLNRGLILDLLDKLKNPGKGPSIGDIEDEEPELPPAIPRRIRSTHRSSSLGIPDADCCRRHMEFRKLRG
Protocol: A stock solution of 10 mM of test compound is prepared in DMSO. The compound plate was prepared by 3-fold and 9-point serial dilutions. […] The reaction is initiated by The addition of the Mg/ATP mix. After incubation for 40 minutes at RT, the reaction is stopped by the addition of phosphoric acid to a concentration of 0.5%.

Lck (h) = Lck (h) (Homo sapiens, UniProt P06239); assay: Lck Human  Kinase Enzymatic Radiometric Assay; format: biochemical; conditions: read-out: Lck IC50 nM Range*
Sequence of Lck (h) (P06239 whole entry): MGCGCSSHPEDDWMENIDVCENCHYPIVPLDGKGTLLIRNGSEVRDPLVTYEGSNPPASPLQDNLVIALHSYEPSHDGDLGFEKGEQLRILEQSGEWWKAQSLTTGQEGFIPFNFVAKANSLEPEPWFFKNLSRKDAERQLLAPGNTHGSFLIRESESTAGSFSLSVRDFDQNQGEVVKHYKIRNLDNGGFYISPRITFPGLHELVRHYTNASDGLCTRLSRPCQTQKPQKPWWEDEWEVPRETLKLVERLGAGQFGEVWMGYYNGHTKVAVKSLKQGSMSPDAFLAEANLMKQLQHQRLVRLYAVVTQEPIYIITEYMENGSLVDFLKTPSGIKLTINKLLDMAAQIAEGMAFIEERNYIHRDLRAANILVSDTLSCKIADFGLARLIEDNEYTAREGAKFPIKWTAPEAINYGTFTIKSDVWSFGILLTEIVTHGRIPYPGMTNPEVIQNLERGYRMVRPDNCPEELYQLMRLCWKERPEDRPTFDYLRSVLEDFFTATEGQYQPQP
Summary of the method: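 Substrate 33P-incorporation measured by scintillation counting after spotting on P30 filtermat and phosphoric acid washes. Human Lck reacted 40 min at RT in 50 mM Tris pH 7.5 with 10 mM MgAcetate, [gamma-33P]-ATP, 250 uM Cdc2 peptide, 0.1 mM EGTA and 0.1 mM Na3VO4.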

Row | Compound | IC50 [1] | IC50 (Lck (h))
1 | CN(C)CC(=O)N1C[C@H]2C[C@@]2(c2ccc(-c3cc(-c4ccc5c(c4)CCNC5=O)c(N)nc3F)cc2)C1 [I-225, 6-(2-amino-5-(4-((1R,5S)-3-(dimethylglycyl)-3-azabicyclo[3.1.0]hexan-1-yl)phenyl)-6-fluoropyridin-3-yl)-3,4-dihydroisoquinolin-1(2H)-one] | 0.1 to 10 nM | > 1000 nM
2 | CC(C)N1CCN(c2ccc(-c3cc(-c4cc5c(cc4F)C(=O)NCC5)c(N)nc3F)cn2)CC1 [I-226, 6-(6-amino-2-fluoro-6′-(4-isopropylpiperazin-1-yl)-[3,3′-bipyridin]-5-yl)-7-fluoro-3,4-dihydroisoquinolin-1(2H)-one] | 0.1 to 10 nM | > 1000 nM
3 | Nc1cc2cc(-c3cc(-c4ccc5c(c4)CCNC5=O)c(N)nc3F)c(F)c(Cl)c2cn1 [I-227, 6-(2-amino-5-(3-amino-8-chloro-7-fluoroisoquinolin-6-yl)-6-fluoropyridin-3-yl)-3,4-dihydroisoquinolin-1(2H)-one] | 11 to 100 nM | > 1000 nM
4 | CC(C)N1CCc2cc(-c3cc(-c4ccc5c(c4)CCNC5=O)c(N)nc3F)nn2CC1=O [I-228, 2-(6-amino-2-fluoro-5-(1-oxo-1,2,3,4-tetrahydroisoquinolin-6-yl)pyridin-3-yl)-6-isopropyl-5,6-dihydro-4H-pyrazolo[1,5-d][1,4]diazepin-7(8H)-one] | 11 to 100 nM | > 1000 nM
5 | Nc1nc(F)c(-c2cc3n(n2)CC(=O)NCC3)cc1-c1ccc2c(c1)CCNC2=O [I-229, 2-(6-amino-2-fluoro-5-(1-oxo-1,2,3,4-tetrahydroisoquinolin-6-yl)pyridin-3-yl)-5,6-dihydro-4H-pyrazolo[1,5-d][1,4]diazepin-7(8H)-one] | 11 to 100 nM | > 1000 nM
6 | CN1CC=C(c2ccc(-c3cc(-c4ccc5c(c4)CCNC5=O)c(N)nc3Cl)cc2)CC1 [I-230, 6-(2-amino-6-chloro-5-(4-(1-methyl-1,2,3,6-tetrahydropyridin-4-yl)phenyl)pyridin-3-yl)-3,4-dihydroisoquinolin-1(2H)-one] | 11 to 100 nM | > 1000 nM
7 | CN1CCC(c2ccc(-c3cc(-c4ccc5c(c4)CCNC5=O)c(N)nc3Cl)cc2)CC1 [I-231, 6-(2-amino-6-chloro-5-(4-(1-methylpiperidin-4-yl)phenyl)pyridin-3-yl)-3,4-dihydroisoquinolin-1(2H)-one] | 11 to 100 nM | > 1000 nM
8 | CN1CC=C(c2ccc(-c3cc(-c4cc5c(cc4F)C(=O)NCC5)c(N)nc3Cl)cc2)CC1 [I-232, 6-(2-amino-6-chloro-5-(4-(1-methyl-1,2,3,6-tetrahydropyridin-4-yl)phenyl)pyridin-3-yl)-7-fluoro-3,4-dihydroisoquinolin-1(2H)-one] | 11 to 100 nM | > 1000 nM
9 | Cc1c(N)cncc1-c1cc(-c2ccc3c(c2)CCNC3=O)c(N)nc1F [I-234, 6-(5,6-diamino-2-fluoro-4′-methyl-[3,3′-bipyridin]-5-yl)-3,4-dihydroisoquinolin-1(2H)-one 2,2,2-trifluoroacetate] | > 1000 nM | > 1000 nM
10 | Nc1nc(F)c(-c2ccc(N3CCN(CC(F)F)CC3)cc2)cc1-c1cc2c(cc1F)C(=O)NCC2 [I-236, 6-(2-amino-5-(4-(4-(2,2-difluoroethyl)piperazin-1-yl)phenyl)-6-fluoropyridin-3-yl)-7-fluoro-3,4-dihydroisoquinolin-1(2H)-one] | 0.1 to 10 nM | > 1000 nM
11 | CC(C)N1CCC(F)(c2ccc(-c3cc(-c4ccc5c(c4)CCNC5=O)c(N)nc3F)cc2)CC1 [I-239, 6-(2-amino-6-fluoro-5-(4-(4-fluoro-1-isopropylpiperidin-4-yl)phenyl)pyridin-3-yl)-3,4-dihydroisoquinolin-1(2H)-one] | 0.1 to 10 nM | > 1000 nM
12 | Nc1nc(F)c(-c2ccc(N3CCN(CCC(F)(F)F)CC3)cc2)cc1-c1ccc2c(c1)CCNC2=O [I-240, 6-(2-amino-6-fluoro-5-(4-(4-(3,3,3-trifluoropropyl)piperazin-1-yl)phenyl)pyridin-3-yl)-3,4-dihydroisoquinolin-1(2H)-one] | 0.1 to 10 nM | > 1000 nM

The next lines start with the values.

Row | IC50 [1] | IC50 (Lck (h)) | Compound
13 | 11 to 100 nM | > 1000 nM | CN1CCC(c2ccc(-c3cc(-c4cc5c(cc4F)C(=O)NCC5)c(N)nc3Cl)cc2)CC1 [I-233, 6-(2-amino-6-chloro-5-(4-(1-methylpiperidin-4-yl)phenyl)pyridin-3-yl)-7-fluoro-3,4-dihydroisoquinolin-1(2H)-one]
14 | 0.1 to 10 nM | > 1000 nM | CCN1CCC(c2ccc(-c3cc(-c4ccc5c(c4)CCNC5=O)c(N)nc3F)cc2)C1 (centres unmarked) [I-235, 6-(2-amino-5-(4-(1-ethylpyrrolidin-3-yl)phenyl)-6-fluoropyridin-3-yl)-3,4-dihydroisoquinolin-1(2H)-one]
15 | 0.1 to 10 nM | > 1000 nM | Nc1nc(F)c(-c2ccc(N3CCN(CC(F)(F)F)CC3)cc2)cc1-c1cc2c(cc1F)C(=O)NCC2 [I-237, 6-(2-amino-6-fluoro-5-(4-(4-(2,2,2-trifluoroethyl)piperazin-1-yl)phenyl)pyridin-3-yl)-7-fluoro-3,4-dihydroisoquinolin-1(2H)-one]
16 | 0.1 to 10 nM | > 1000 nM | Nc1nc(F)c(-c2ccc(C3CCNCC3)cc2)cc1-c1cc2c(cc1F)C(=O)NCC2 [I-238, 6-(2-amino-6-fluoro-5-(4-(piperidin-4-yl)phenyl)pyridin-3-yl)-7-fluoro-3,4-dihydroisoquinolin-1(2H)-one 2,2,2-trifluoroacetate]
17 | 0.1 to 10 nM | > 1000 nM | COCCN1CCC(c2ccc(-c3cc(-c4cc5c(cc4F)C(=O)NCC5)c(N)nc3F)cc2)CC1 [I-241, 6-(2-amino-6-fluoro-5-(4-(1-(2-methoxyethyl)piperidin-4-yl)phenyl)pyridin-3-yl)-7-fluoro-3,4-dihydroisoquinolin-1(2H)-one]
18 | 0.1 to 10 nM | > 1000 nM | Nc1nc(F)c(-c2ccc(C3CCN(CC4CC4)CC3)cc2)cc1-c1cc2c(cc1F)C(=O)NCC2 [I-242, 6-(2-amino-5-(4-(1-(cyclopropylmethyl)piperidin-4-yl)phenyl)-6-fluoropyridin-3-yl)-7-fluoro-3,4-dihydroisoquinolin-1(2H)-one]
19 | 0.1 to 10 nM | > 1000 nM | Nc1nc(F)c(-c2ccc(N3CCN(CCC(F)(F)F)CC3)cc2)cc1-c1cc2c(cc1F)C(=O)NCC2 [I-243, 6-(2-amino-6-fluoro-5-(4-(4-(3,3,3-trifluoropropyl)piperazin-1-yl)phenyl)pyridin-3-yl)-7-fluoro-3,4-dihydroisoquinolin-1(2H)-one]
20 | 0.1 to 10 nM | > 1000 nM | CC(C)N1CCC(c2ccc(-c3cc(-c4cc5c(cc4F)C(=O)NCC5)c(N)nc3F)cc2)CC1 [I-244, 6-(2-amino-6-fluoro-5-(4-(1-isopropylpiperidin-4-yl)phenyl)pyridin-3-yl)-7-fluoro-3,4-dihydroisoquinolin-1(2H)-one]
21 | 0.1 to 10 nM | > 1000 nM | CCN1CCC(c2ccc(-c3cc(-c4cc5c(cc4F)C(=O)NCC5)c(N)nc3F)cc2)CC1 [I-245, 6-(2-amino-5-(4-(1-ethylpiperidin-4-yl)phenyl)-6-fluoropyridin-3-yl)-7-fluoro-3,4-dihydroisoquinolin-1(2H)-one]
22 | 0.1 to 10 nM | > 1000 nM | CN1CCN(c2ccc(-c3cc(-c4cc5c(cc4F)C(=O)NCC5)c(N)nc3F)cc2)CC1 [I-246, 6-(2-amino-6-fluoro-5-(4-(4-methylpiperazin-1-yl)phenyl)pyridin-3-yl)-7-fluoro-3,4-dihydroisoquinolin-1(2H)-one]
